This is an account of results in US5358936A, “Anionic furanose derivatives, methods of making and using the same” (Gordon; Paul, priority 1991, dated 1994).

The subject of data set [1] is focal submucosal lesions. Briefly: Ethanol-induced gastric focal lesions (Example 33). The data set is classed as in vivo, rat. As for the experimental part:
At three hours after ethanol administration, this drug continued to suppress ethanol-induced focal lesions (-57 percent).
A suspension of 25 mg/kg sucralfate+25 mg/kg Compound III:Al in combination was given as a pretreatment administration to another group in the same study. The combination produced an unanticipated augmentation of therapeutic effect against ethanol-induced focal submucosal lesions (-90 percent) at three hours post-ethanol administration. The same interactive phenomenon was also observed when Compound III was used, rather than Compound III:Al.

In data set [2] the test system is gastric mucosal ulcers. Nature of the data set: Healing of established gastric ulcers induced by acetic acid (Example 34). It counts as in vivo, rat. An excerpt: To evaluate drug effects on peptic ulcer healing, gastric mucosal ulcers were produced in rats, after a two day fast, by a modification of the method of Konturek et al., Am. J. Med., Vol. 86, 6A, 32 (1989). Briefly, to produce a mucosal ulcer, Konturek et al. applied 100 percent acetic acid for twenty seconds to the stomach serosa through a small cylindrical mold, 4.2 mm in diameter. The aim here was to make ulceration more severe than was achieved by the Konturek group so that spontaneous healing would not be as pronounced as they found in the controls, over an experimental period of seven days.
All drugs studied were suspended in 0.25 percent (by weight) aqueous methylcellulose solution as the vehicle or diluent, which also served as the placebo given to the controls. Treatments were given once daily by oral gavage, in one milliliter of vehicle. The treatment groups were: Control; Sucralfate at 200 mg/kg; and Compound III:Al at 200 mg/kg.
At the end of the treatment period, stomachs were removed, ulcer diameters were measured, and determination was made of the presence or absence of perforation.
A second study was carried out in which ulcer evolution was permitted to take place over five additional days, in the absence and presence of treatment with Sucralfate.
A third study was begun one day following the start of study 2, in which ulcer evolution was allowed to take place over five additional days, in the absence and presence of treatment with Compound III:Al.
In another study, after ulcer induction as above, a different dosage protocol was employed at 24 hours to evaluate the interaction of Compound III and orally administered sucralfate on ulcer healing. […] Here, daily drug doses of the following were used: (a) sucralfate at 200 mg/kg, alone and (b) in combination with 80 mg/kg Compound III given by mouth at -45 minutes, and, in a third group, (c) in combination with 10 mg/kg Compound III given IV also at -45 minutes. In this interaction study, drug treatment was continued for three and not five days, as was the case for the above studies, followed by passage of two additional non-treatment days before sacrifice of animals for evaluation of stomach ulcer area and perforation.
Data from all ulcer-healing studies employing a drug dosage of 200 mg/kg and the same ulcerogenesis protocol were pooled as to the frequency of gastric perforation observed on day five, not shown separately, with the day six perforation data shown above.

The nature of data set [3]: Solubility / dissolution in acid, water and 20 percent methanol. Particulars: pH 1.2; Compound III:Al 2.5 mg/ml. The data set is classed as physicochemical.
In data set [4] the test system is focal submucosal lesions. Nature of the data set: Ethanol-induced gastric focal lesions (Example 33). Particulars: one hour post-ethanol, 50 mg/kg. It counts as in vivo, rat.
For data set [5] the following is noted: Physicians' Desk Reference (1990); cited from earlier work.
Data set [6] is described as follows: Dissolution and buffering of suspensions, HCl titration (Example 16).
Source text: Note that the term "apparent pK" in this context is meant to encompass the maximization of buffering that come both from solid-state dissolution and its titration as solute.
Where [7] appears, read: three hours post-ethanol, 50 mg/kg, combination 25 + 25 mg/kg.

Several values for one entry are separate records, joined by “and”; a condition that tells them apart may be missing. Identical values can stand only once. Entries after “also recorded” stand apart in the source; their conditions may differ.

With “sucrose octakis-(hydrogen sulfate) aluminum complex [sucralfate, reference compound]”, the “effect on ethanol-produced gastric pathology, in words” value in data set [1] (pretreatment 50 mg/kg one hour before ethanol) was “inhibited all focal submucosal lesions; also recorded: All large vessel vasodilation provoked by ethanol was also inhibited one hour after ethanol treatment; also recorded: at three hours all therapeutic effects of sucralfate on ethanol-produced gastric pathology were absent”. Further, the “change in focal lesions versus control” value in data set [1] (setting [7]) is given as “+6%”; in data set [4] it was -100%. For the same substance, the “change in focal lesions versus control, study employing Compound III” value in data set [1] (setting [7]) is “+44%”. Also, in data set [1] (three hours post-ethanol, 50 mg/kg, combination 25 + 25 mg/kg, control 2.25 ± 0.98), the “Focal Lesions per Stomach, study employing Compound III” value is listed as 3.25 + 1.01 per Stomach. In addition, the “Focal Lesions per Stomach” value in data set [1] (three hours post-ethanol, 50 mg/kg, combination 25 + 25 mg/kg, n = 17, control 4.94 ± 1.41) was determined as 5.24 ± 1.49 per Stomach; in data set [4] (n = 6, control 4.17 ± 1.58, p<0.05) it was 0.00 per Stomach. Further, in data set [2] (Day 6, 200 mg/kg oral), the “DRUG EFFECT on mean ulcer score” value is listed as -33%. Also, in data set [2] (Day 6, 200 mg/kg oral once daily, * = perforation, 200 mg/kg), the “Established ulcer score, individual animal (area in cm^2, + 2.0 for perforation)” value was 2.96 and 5.75 and 3.0 and 1.0 and 0.96 and 3.5 and 1.5 and 0.1 and 1.05 and 0.4. In addition, the “MEAN SCORE, established ulcers” value in data set [2] (Day 6, 200 mg/kg oral, controls 3.03 ± 0.73 (sucralfate study, not significant), 4.12 ± 0.67 (Compound III:Al study, P < 0.001)) was determined as 2.02 ± 0.55. In data set [2] (day six, 200 mg/kg oral), the “DRUG EFFECT on mean ulcer area” value was -43%. Also, in data set [2] (day six, 200 mg/kg oral, controls 2.14 ± 0.43 (sucralfate, P < 0.1), 2.32 ± 0.61 (Compound III:Al, P < 0.05)), the “Established ulcer area, MEAN” value came out at 1.22 ± 0.31 CM^2. For the same substance, in data set [2] (day six, three days treatment, sucralfate 200 mg/kg alone), the “Established ulcer area, MEAN (comparative treatments)” value was 2.11 ± 0.41 CM^2. Also, in data set [2] (pooled, 200 mg/kg, control 50, Compound III:Al P < 0.001 vs control and vs sucralfate), the “Perforation As Percent” value came to 38%. In addition, the “Perforation Frequency” value in data set [2] (pooled, 200 mg/kg, days five and six, control 26/52) is 12/32. Also, the “dissolution of suspension in acid” value in data set [3] is “complete dissolution”. In addition, in data set [5], the “absorption from the gastrointestinal tract” value is listed as “only minimally absorbed”. Moreover, the “HCl needed to lower pH of suspension to below pH 2.00” value in data set [6] (50 mg in 20 ml distilled water, initial pH 4.44 (aluminum trihydroxide), 4.91 (sucralfate), 4.23 (Compound III:Al), water alone 0.30) is reported as 0.4 meq. For the same substance, the “buffering action, in words” value in data set [6] (HCl titration) was “only a minor buffering action between pH 1.73 and 1.47”. For the same substance, in data set [6] (sucralfate = 1), the “Relative Buffering Power between pH 4.5 and 2.0” value was 1.
